Measurements taken from patent publication US11840497B2, “4-(p-quinonyl)-2-hydroxybutanamide derivatives for treatment of mitochondrial diseases” (PTC Therapeutics, Inc., priority 2007, dated 2023).

What was measured:
Format in all cases: cell-based
[1] = tested on: human dermal fibroblasts from CoQ10 deficient patients; experiment: Rescue of stressed fibroblasts from CoQ10 deficient patients (Example E); conditions: Fibroblast, fibroblasts harboring a CoQ2 mutation, screen similar to Example A, read-out: protection against CoQ10 deficiency, EC50
Protocol: Compounds of the invention were tested using a screen similar to the one described in Example A, but substituting FRDA cells with cells obtained from CoQ10 deficient patients harboring a CoQ2 mutation.

[2] = tested on: Human dermal fibroblasts from Friedreich's Ataxia patients; experiment: Rescue of BSO-stressed FRDA fibroblasts (Example A); conditions: FRDA fibroblasts GM04078, 1 mM BSO, read-out: protection against FRDA, EC50
Protocol: Test samples, 4 reference compounds (idebenone, decylubiquinone, Trolox and α-tocopherol acetate), and solvent controls were tested for their ability to rescue FRDA fibroblasts stressed by addition of L-buthionine (S,R)-sulfoximine (BSO), as described in Jauslin et al., Hum. Mol. Genet. […] Mol. Genet. […] This specific BSO-mediated cell death can be prevented by administration of antioxidants or molecules involved in the antioxidant pathway, such as α-tocopherol, selenium, or small molecule glutathione peroxidase mimetics. However, antioxidants differ in their potency, i.e. the concentration at which they are able to rescue BSO-stressed FRDA fibroblasts.
Fetal Calf Serum was obtained from PAA Laboratories. Basic fibroblast growth factor and epidermal growth factor were purchased from PeproTech. Penicillin-streptomycin-glutamine mix, L-buthionine (S,R)-sulfoximine, (+)-α-tocopherol acetate, decylubiquinone, and insulin from bovine pancreas were purchased from Sigma. Trolox (6-Hydroxy-2,5,7,8-tetramethylchroman-2-carboxylic acid) was obtained from Fluka. Idebenone was obtained from Chemo Iberica. Calcein AM was purchased from Molecular Probes. Cell culture medium was made by combining 125 ml M199 EBS, 50 ml Fetal Calf Serum, 100 U/ml penicillin, 100 μg/ml streptomycin, 2 mM glutamine, 10 μg/ml insulin, 10 ng/ml EGF, and 10 ng/ml bFGF; MEM EBS was added to make the volume up to 500 ml. […] During the course of the experiments, this solution was stored at +4° C. The cells were obtained from the Coriell Cell Repositories (Camden, NJ; repository number GM04078) and grown in 10 cm tissue culture plates. Every third day, they were split at a 1:3 ratio.
The test samples were supplied in 1.5 ml glass vials. […] Once dissolved, they were stored at −20° C. Reference antioxidants (idebenone, decylubiquinone, α-tocopherol acetate and trolox) were dissolved in DMSO.
Test samples were screened according to the following protocol: A culture with FRDA fibroblasts was started from a 1 ml vial with approximately 500,000 cells stored in liquid nitrogen. […] Once confluent, fibroblasts were harvested. […] The remaining cells were distributed in 10 cm cell culture plates (500,000 cells/plate) for propagation. The plates were incubated overnight at 37° C. in a atmosphere with 95% humidity and 5% CO2 to allow attachment of the cells to the culture plate.
MTP medium (243 μl) was added to a well of the microtiter plate. […] Serial dilutions from the master solution were made. The period between the single dilution steps was kept as short as possible (generally less than 1 second).
Plates were kept overnight in the cell culture incubator. The next day, 10 μl of a 10 mM BSO solution were added to the wells, resulting in a 1 mM final BSO concentration. Forty-eight hours later, three plates were examined under a phase-contrast microscope to verify that the cells in the 0% control (wells E1-H1) were clearly dead. The medium from all plates was discarded, and the remaining liquid was removed by gently tapping the plate inversed onto a paper towel.
The plates were incubated for 50-70 minutes at room temperature. After that time the PBS was discarded, the plate gently tapped on a paper towel and fluorescence (excitation/emission wavelengths of 485 nm and 525 nm, respectively) was read on a Gemini fluorescence reader. Data was imported into Microsoft Excel (EXCEL is a registered trademark of Microsoft Corporation for a spreadsheet program) and used to calculate the EC50 concentration for each compound.
The compounds were tested three times, i.e., the experiment was performed three times, the passage number of the cells increasing by one with every repetition.
The viability of non-BSO treated fibroblasts was set as 100%, and the viability of the BSO- and compound-treated cells was calculated as relative to this value.

[3] = tested on: human dermal fibroblasts from Huntington's patients; experiment: Rescue of BSO-stressed fibroblasts from Huntington's patients (Example B); conditions: Fibroblast, Huntington's fibroblasts GM 04281, screen as Example A, read-out: protection against Hungtington's, EC50
Protocol: The compounds were tested for their ability to rescue human dermal fibroblasts from Huntington's patients from oxidative stress.

[4] = tested on: human dermal fibroblasts from LHON patients; experiment: Rescue of BSO-stressed fibroblasts from LHON patients (Example C); conditions: Fibroblast, LHON fibroblasts GM03858, screen as Example A, read-out: protection against LHON, EC50
Protocol: The compounds were tested for their ability to rescue human dermal fibroblasts from LHON patients from oxidative stress.

SMILES | EC50 [1] [nM] | EC50 [2] [nM] | EC50 [3] [nM] | EC50 [4] [nM]
CC1=C(C)C(=O)C(CCC(C)(O)C(=O)N2CCNCC2)=C(C)C1=O (centres unmarked) [2-(3-hydroxy-3-methyl-4-oxo-4-(piperazin-1-yl)butyl)-3,5,6-trimethylcyclohexa-2,5-diene-1,4-dione] | < 100 | < 100 | – | –
COc1ccc(NC(=O)C(C)(O)CCC2=C(C)C(=O)C(C)=C(C)C2=O)cc1 (centres unmarked) [2-hydroxy-N-(4-methoxyphenyl)-2-methyl-4-(2,4,5-trimethyl-3,6-dioxocyclohexa-1,4-dienyl)butanamide] | – | < 100 | < 100 | –
CC(=O)N1CCN(C(=O)[C@](C)(O)CCC2=C(C)C(=O)C(C)=C(C)C2=O)CC1 [(R)-2-(4-(4-acetylpiperazin-1-yl)-3-hydroxy-3-methyl-4-oxobutyl)-3,5,6-trimethylcyclohexa-2,5-diene-1,4-dione] | – | < 100 | < 100 | < 100
CC1=C(C)C(=O)C(CC[C@@](C)(O)C(N)=O)=C(C)C1=O [(R)-2-hydroxy-2-methyl-4-(2,4,5-trimethyl-3,6-dioxocyclohexa-1,4-dienyl)butanamide] | – | < 100 | < 100 | < 100
CC(=O)N1CCN(C(=O)[C@@](C)(O)CCC2=C(C)C(=O)C(C)=C(C)C2=O)CC1 [(S)-2-(4-(4-acetylpiperazin-1-yl)-3-hydroxy-3-methyl-4-oxobutyl)-3,5,6-trimethylcyclohexa-2,5-diene-1,4-dione] | – | < 100 | < 100 | < 100
CC1=C(C)C(=O)C(CCC(C)(O)C(=O)NCCCO)=C(C)C1=O (centres unmarked) [Example 9, 2-Hydroxy-N-(3-hydroxypropyl)-2-methyl-4-(2,4,5-trimethyl-3,6-dioxocyclohexa-1,4-dienyl)butanamide] | – | < 100 | < 100 | < 100
CC1=C(C)C(=O)C(CCC(C)(O)C(=O)N2CCN(C)CC2)=C(C)C1=O (centres unmarked) [Example 14, 2-(3-Hydroxy-3-methyl-4-(4-methylpiperazin-1-yl)-4-oxobutyl)-3,5,6-trimethylcyclohexa-2,5-diene-1,4-dione] | – | < 100 | < 100 | –
CC1=C(C)C(=O)C(CCC(C)(O)C(=O)NCCCCO)=C(C)C1=O (centres unmarked) [Example 17, 2-Hydroxy-N-(4-hydroxybutyl)-2-methyl-4-(2,4,5-trimethyl-3,6-dioxocyclohexa-1,4-dienyl)butanamide] | – | < 100 | < 100 | < 100
CC1=C(C)C(=O)C(CCC(C)(O)C(=O)NC(C)CO)=C(C)C1=O (centres unmarked) [Example 19, 2-Hydroxy-N-(1-hydroxypropan-2-yl)-2-methyl-4-(2,4,5-trimethyl-3,6-dioxocyclohexa-1,4-dienyl)butanamide] | – | < 100 | < 100 | < 100
CC1=C(C)C(=O)C(CCC(C)(O)C(=O)NCCCN2CCCC2=O)=C(C)C1=O (centres unmarked) [Example 29, 2-Hydroxy-2-methyl-N-(3-(2-oxopyrrolidin-1-yl)-propyl)-4-(2,4,5-trimethyl-3,6-dioxocyclohexa-1,4-dienyl)butanamide] | – | – | < 100 | –
CC1=C(C)C(=O)C(CCC(C)(O)C(=O)NCCCN2CCOCC2)=C(C)C1=O (centres unmarked) [Example 33, 2-Hydroxy-2-methyl-N-(3-morpholinopropyl)-4-(2,4,5-trimethyl-3,6-dioxocyclohexa-1,4-dienyl)butanamide] | – | < 100 | < 100 | –
CC1=C(C)C(=O)C(CCC(C)(O)C(=O)N(CCO)CCO)=C(C)C1=O (centres unmarked) [Example 35, 2-Hydroxy-N,N-bis(2-hydroxyethyl)-2-methyl-4-(2,4,5-trimethyl-3,6-dioxocyclohexa-1,4-dienyl)butanamide] | – | < 100 | < 100 | –
CC1=C(C)C(=O)C(CCC(C)(O)C(=O)NCc2ccccc2Cl)=C(C)C1=O (centres unmarked) [N-(2-chlorobenzyl)-2-hydroxy-2-methyl-4-(2,4,5-trimethyl-3,6-dioxocyclohexa-1,4-dienyl)butanamide] | – | < 100 | < 100 | < 100
CC1=C(C)C(=O)C(CCC(C)(O)C(=O)NCCc2ccccc2Cl)=C(C)C1=O (centres unmarked) [N-(2-chlorophenethyl)-2-hydroxy-2-methyl-4-(2,4,5-trimethyl-3,6-dioxocyclohexa-1,4-dienyl)butanamide] | < 100 | < 100 | – | –
CC1=C(C)C(=O)C(CCC(C)(O)C(=O)NCc2ccccc2F)=C(C)C1=O (centres unmarked) [N-(2-fluorobenzyl)-2-hydroxy-2-methyl-4-(2,4,5-trimethyl-3,6-dioxocyclohexa-1,4-dienyl)butanamide] | – | < 100 | < 100 | < 100
CC1=C(C)C(=O)C(CCC(C)(O)C(=O)NCc2cccc(Cl)c2)=C(C)C1=O (centres unmarked) [N-(3-chlorobenzyl)-2-hydroxy-2-methyl-4-(2,4,5-trimethyl-3,6-dioxocyclohexa-1,4-dienyl)butanamide] | – | < 100 | < 100 | < 100
CC1=C(C)C(=O)C(CCC(C)(O)C(=O)NCCc2cccc(Cl)c2)=C(C)C1=O (centres unmarked) [N-(3-chlorophenethyl)-2-hydroxy-2-methyl-4-(2,4,5-trimethyl-3,6-dioxocyclohexa-1,4-dienyl)butanamide] | – | < 100 | < 100 | < 100
CC1=C(C)C(=O)C(CCC(C)(O)C(=O)NCc2cccc(F)c2)=C(C)C1=O (centres unmarked) [N-(3-fluorobenzyl)-2-hydroxy-2-methyl-4-(2,4,5-trimethyl-3,6-dioxocyclohexa-1,4-dienyl)butanamide] | – | < 100 | < 100 | < 100
CC1=C(C)C(=O)C(CCC(C)(O)C(=O)NCc2ccc(Cl)cc2)=C(C)C1=O (centres unmarked) [N-(4-chlorobenzyl)-2-hydroxy-2-methyl-4-(2,4,5-trimethyl-3,6-dioxocyclohexa-1,4-dienyl)butanamide] | – | < 100 | < 100 | < 100
CC1=C(C)C(=O)C(CCC(C)(O)C(=O)Nc2ccc(Cl)cc2)=C(C)C1=O (centres unmarked) [N-(4-chlorophenyl)-2-hydroxy-2-methyl-4-(2,4,5-trimethyl-3,6-dioxocyclohexa-1,4-dienyl)butanamide] | – | < 100 | < 100 | < 100
CC1=C(C)C(=O)C(CCC(C)(O)C(=O)NCc2ccc(F)cc2)=C(C)C1=O (centres unmarked) [N-(4-fluorobenzyl)-2-hydroxy-2-methyl-4-(2,4,5-trimethyl-3,6-dioxocyclohexa-1,4-dienyl)butanamide] | – | < 100 | < 100 | < 100
CC1=C(C)C(=O)C(CCC(C)(O)C(=O)NCCc2ccc(F)cc2)=C(C)C1=O (centres unmarked) [N-(4-fluorophenethyl)-2-hydroxy-2-methyl-4-(2,4,5-trimethyl-3,6-dioxocyclohexa-1,4-dienyl)butanamide] | – | < 100 | < 100 | < 100
CC1=C(C)C(=O)C(CCC(C)(O)C(=O)N2CCN(C(=O)OC(C)(C)C)CC2)=C(C)C1=O (centres unmarked) [tert-butyl 4-(2-hydroxy-2-methyl-4-(2,4,5-trimethyl-3,6-dioxocyclohexa-1,4-dienyl)butanoyl)piperazine-1-carboxylate] | < 100 | – | – | –
